According to US6867320B2, “Substituted phenylalkanoic acid derivatives and use thereof” (Asahi Kasei Pharma Corporation, priority 2002, dated 2005):

Columns and labels:
[1] = test system: PGE2 production from IL-1β-stimulated MG-63 cells; experiment: Suppressing action on PGE2 production from IL-1β-stimulated MG-63 cells; format: cell-based; details: Homo sapiens, IL-1β 1 ng/ml, 18 hours, read-out: PGE2 production suppression ratio
How it was run: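 PGE2 in 18 h supernatants was quantified by EIA and expressed as % suppression relative to IL-1β-only and unstimulated controls. Cells were the MG-63 osteosarcoma line, plated at 2×10^4/well, given compound in 0.5% FBS EMEM, then 1 ng/ml IL-1β final.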

[2] = test system: zymosan-stimulated footpad edema; experiment: Mouse zymosan-stimulated footpad edema reaction; format: in vivo; details: ICR female mice, oral 0.1 to 500 mg/kg, compared with positive control group
Method: 3. Suppressing Effect on Mouse Zymosan-stimulated Footpad Edema Reaction A suppressing effect on footpad edema caused by zymosan as an inflammatory stimulant was studied by the following method. Groups of ICR female mice (6- to 7-week old) each consisting of eight mice were used for the test. A test compound was suspended or dissolved in purified water containing 0.5% methylcellulose and orally administered to the test animals at 0.1 to 500 mg/0.2 ml/kg. To the control group, purified water containing 0.5% methylcellulose was administered in a similar manner, which was not added with a test compound. One hour after the administration of the test compound, 0.02 ml of a suspension of zymosan suspended in physiological saline (Otsuka Pharmaceutical) at 1 mg/ml was subcutaneously administered to right hind leg footpad of each mouse. One and two hours after the administration of the zymosan suspension, volume of the right hind leg footpad was measured by using an apparatus for measuring a volume of mouse hind leg footpad edema (Unicom). A difference of the volume of footpad measured above and the footpad volume before the administration of the test compound measured beforehand was regarded as a volume of the edema. For the volume of the edema at 1 hour or 2 hours after the zymosan administration, a graph was prepared by indicating time in abscissa and the edema volume in ordinate, and an edema volume AUC (area under the curve) was obtained up to 2 hours by calculation using the following equation. Edema volume AUC (1·hour)=1/2×1×A+1×(A+B)/2 • A: Edema volume 1 hour after zymosan administration • B: Edema volume 2 hour after zymosan administration A suppression ratio on edema of test compound was obtained by calculation using the following equation. Edema suppression ratio (%)=[1−B/A]×100 • A: Edema volume AUC of positive control • B: Edema volume AUC of test compound administered group (2) Measurement Results

[3] = test system: PGD2 production from IgE-stimulated RBL-2H3 cells; experiment: Suppressing action on PGD2 production from IgE-stimulated RBL-2H3 cells; format: cell-based; details: Rattus norvegicus, 10 min, IgE/DNP-BSA stimulated RBL-2H3 cells, read-out: PGD2 production suppression ratio
Excerpt: (§1) 2. Suppressing Action on PGD2 and LTB4 Production from IgE-Stimulated RBL-2H3 Cells
(§2) Suppressing action on PGD2 and LTB4 production caused by IgE as an allergic stimulant was investigated by the following method. Cells of RBL-2H3, which is a rat mastocytoma cell line (purchased from ATCC), were suspended in DEMEM medium (GIBCO) containing 10% fetal bovine serum (BioFluid), inoculated to each well of 48-well culture plate at a density of 2×10^4 cells/well and cultured overnight. Then, IgE antiserum directed to dinitrophenylated BSA (henceforth DNP-BSA) was further added to each well, and the cells were cultured for 30 minutes. Then, the medium was changed to DEMEM medium containing 0.5% fetal bovine serum, a test compound was added with each well, and DNP-BSA was further added at a final concentration of 100 ng/ml as a stimulant. Ten minutes after the stimulant was added, the culture supernatant was collected, and the PGD2 concentration and LTB4 concentration in the culture supernatant were measured by using EIA kit (CAYMAN). By using a well which was not added with the stimulant as a negative control and a well which was added only with the stimulant as a positive control, suppressing ratios on mediator production were calculated from the production amounts of the mediators in the well added with the test compound using the following equation. PGD2 or LTB4 production suppression ratio=[1−(C−B)/(A−B)]×100 • A: PGD2 or LTB4 production amount of positive control • B: PGD2 or LTB4 production amount of negative control • C: PGD2 or LTB4 production amount in well added with test compound
(§3) Further, as control compounds for comparison, reference compound (1), 3-(2-cyclohexylmethyloxy-1,1′-biphenyl-5-yl)propionic acid described in WO99/19291, reference compounds (2) and (3), [2-(5,6,7,8-tetrahydro-5,5,8,8-tetramethyl-2-naphthalenyl)methyloxy-1,1′-biphenyl-5-yl]carboxylic acid [reference compound (2)] and 3-[3′-carboxy-2-(5,6,7,8-tetrahydro-5,5,8,8-tetramethyl-2naphthalenyl)methyloxy-1,1′-biphenyl-6-yl]propionic acid [reference compound (3)] described in U.S. Pat. No. 5,391,817 and Japanese Patent Unexamined Publication (Kokai) No. 7-22399, respectively, were used, and activities thereof were similarly measured.

[4] = test system: LTB4 production from IgE-stimulated RBL-2H3 cells; experiment: Suppressing action on LTB4 production from IgE-stimulated RBL-2H3 cells; format: cell-based; details: Rattus norvegicus, 10 min, IgE/DNP-BSA stimulated RBL-2H3 cells, read-out: LTB4 production suppression ratio
Excerpt: as §1, §2, §3

Compound | inhibition at 0.4 µM [1] | suppression of footpad edema caused by zymosan [2] | inhibition at 0.4 µM [3] | inhibition at 0.4 µM [4]
CCCCOc1ccc(CCC(=O)O)cc1-c1ccc2nc(N)sc2c1 [Compound 291, 3-[3-(2-aminobenzothiazol-6-yl)-4-butyloxyphenyl]propionic acid] | ≥ 50% | suppressed footpad edema | – | –
Cn1ncc2cc(-c3cc(CCC(=O)O)cc(F)c3OC3CCCC3)ccc21 [Compound 483, 3-[4-cyclopentyloxy-3-fluoro-5-(1-methyl-1H-indazol-5-yl)phenyl]propionic acid] | ≥ 50% | – | ≥ 50% | ≥ 50%
O=C(O)CCc1ccc(OCc2cccc(F)c2)c(-c2ccc3ccccc3c2)c1 [Compound 035, 3-[4-(3-fluorophenylmethyloxy)-3-(naphthalen-2-yl)phenyl]propionic acid] | – | – | ≥ 50% | ≥ 50%
O=C(O)CCc1ccc(OCCc2ccccc2F)c(-c2ccc3cc(O)ccc3c2)c1 [Compound 006, 3-{4-[2-(2-fluorophenyl)ethyloxy]-3-(6-hydroxynaphthalen-2-yl)phenyl}propionic acid] | ≥ 50% | suppressed footpad edema | – | –
CNc1ccc2cc(-c3cc(CCC(=O)O)ccc3OCC3CCCC3)ccc2c1 [Compound 016, 3-{4-cyclopentylmethyloxy-3-[6-(N-methylamino)naphthalen-2-yl]phenyl}propionic acid] | ≥ 50% | – | ≥ 50% | ≥ 50%
O=C(O)CCc1ccc(OCC2CCCCC2)c(-c2ccccc2)c1 [reference compound (1), 3-(2-cyclohexylmethyloxy-1,1′-biphenyl-5-yl)propionic acid, reference compound] | – | – | -12.9% | -5.9%
CCn1ncc2cc(-c3cc(CCC(=O)O)cc(N)c3OC3Cc4ccccc4C3)ccc21 [Compound 489, 3-[3-amino-5-(1-ethyl-1H-indazol-5-yl)-4-(indan-2-yloxy)phenyl]propionic acid] | ≥ 50% | – | ≥ 50% | ≥ 50%
O=C(O)CCc1ccc(OCC2CCCC2)c(-c2ccc3cc(NC(=O)CO)ccc3c2)c1 [Compound 079, 3-(4-cyclopentylmethyloxy-3-{6-[2-(hydroxyacetyl)amino]naphthalen-2-yl}phenyl)propionic acid] | – | suppressed footpad edema | – | –
O=C(O)CCc1ccc(OCc2c(Cl)cccc2Cl)c(-c2ccc3[nH]ccc3c2)c1 [Compound 164, 3-[4-(2,6-dichlorophenylmethyloxy)-3-(1H-indol-5-yl)phenyl]propionic acid] | ≥ 50% | suppressed footpad edema | – | –
O=C(O)CCc1ccc(OCCOc2ccccc2)c(-c2ccc3[nH]ccc3c2)c1 [Compound 222, 3-{3-(1H-indol-5-yl)-4-[2-(phenyloxy)ethyloxy]phenyl}propionic acid] | ≥ 50% | suppressed footpad edema | – | –
Cc1cc(CCC(=O)O)cc(-c2ccc3c(cnn3C)c2)c1OC1CCCC1 [Compound 572, 3-[4-cyclopentyloxy-3-methyl-5-(1-methyl-1H-indazol-5-yl)phenyl]propionic acid] | ≥ 50% | – | ≥ 50% | ≥ 50%
O=C(O)CCc1ccc(OCC2CCCC2)c(-c2ccc3cc(NC(=O)c4ccco4)ccc3c2)c1 [Compound 081, 3-(4-cyclopentylmethyloxy-3-{6-[(furan-2-carbonyl)amino]naphthalen-2-yl}phenyl)propionic acid] | ≥ 50% | – | ≥ 50% | ≥ 50%
CN(C)c1ccc(CCOc2ccc(CCC(=O)O)cc2-c2ccc3[nH]ccc3c2)cc1 [Compound 215, 3-(4-{2-[4-(N,N-dimethylamino)phenyl]Ethyloxy}-3-[1H-indol-5-yl]phenyl)propionic acid] | ≥ 50% | suppressed footpad edema | – | –
COc1ccc(CCOc2ccc(CCC(=O)O)cc2-c2ccc3[nH]ccc3c2)cc1 [Compound 207, 3-{3-(1H-indol-5-yl)-4-[2-(4-methoxyphenyl)ethyloxy]phenyl}propionic acid] | ≥ 50% | suppressed footpad edema | – | –
O=C(O)CCc1ccc(OCCc2ccccc2F)c(-c2ccc3[nH]ccc3c2)c1 [Compound 106, 3-{4-[2-(2-fluorophenyl)ethyloxy]-3-(1H-indol-5-yl)phenyl}propionic acid] | ≥ 50% | suppressed footpad edema | – | –
CC(C)(C)c1ccc(COc2ccc(CCC(=O)O)cc2-c2ccc3[nH]ccc3c2)cc1 [Compound 329] | – | suppressed footpad edema | – | –
CC1(C)CCC(C)(C)c2cc(COc3ccc(C(=O)O)cc3-c3ccccc3)ccc21 [reference compound (2), [2-(5,6,7,8-tetrahydro-5,5,8,8-tetramethyl-2-naphthalenyl)methyloxy-1,1′-biphenyl-5-yl]carboxylic acid, reference compound] | – | – | -17.6% | -15.3%
CC1(C)CCC(C)(C)c2cc(COc3cccc(CCC(=O)O)c3-c3cccc(C(=O)O)c3)ccc21 [reference compound (3), 3-[3′-carboxy-2-(5,6,7,8-tetrahydro-5,5,8,8-tetramethyl-2naphthalenyl)methyloxy-1,1′-biphenyl-6-yl]propionic acid, reference compound] | – | – | 2.1% | -6.3%
O=C(O)CCc1ccc(OCCOc2ccccc2Cl)c(-c2ccc3[nH]ccc3c2)c1 [Compound 224, 3-{4-[2-(2-chlorophenyloxy)ethyloxy]-3-(1H-indol-5-yl)phenyl}propionic acid] | ≥ 50% | suppressed footpad edema | – | –
O=C(O)CCc1ccc(OCc2ccccc2F)c(-c2ccc3ccccc3c2)c1 [Compound 031, 3-[4-(2-fluorophenylmethyloxy)-3-(naphthalen-2-yl)phenyl]propionic acid] | ≥ 50% | suppressed footpad edema | – | –
3-[4-isopropyloxy-3-(1H-indol-5-yl)phenyl]propionate [Compound 173] | – | suppressed footpad edema | – | –
3-(3-{6-[(2-aminoacetyl)amino]Naphthalen-2-yl}-4-cyclopentyl-methyloxyphenyl)propionic acid [Compound 078] | – | suppressed footpad edema | – | –
O=C(O)CCc1ccc(OCC2CCCC2)c(-c2cccc3[nH]ccc23)c1 [Compound 114, 3-[4-cyclopentylmethyloxy-3-(1H-indol-4-yl)phenyl]propionic acid] | ≥ 50% | suppressed footpad edema | – | –
